Measured values published in patent publication US12678387B2, “Composition for alleviating hair loss or promoting hair growth” (LG HOUSEHOLD & HEALTH CARE LTD., priority 2020, dated 2026).

How the values were obtained:
[1] = system: Wnt/β-catenin signaling; test: Wnt/β-catenin luciferase reporter assay in Wnt Reporter HEK293A cells; assay type: cell-based; settings: for Wnt signaling activity for activating hair follicles (%): untreated group 100%; for Wnt signaling activity (in words): summary of Table 5
Excerpt: In general, the Wnt/β-catenin signaling activated in the dermal papillae during transition from the […] to the anagen transition in the hair growth cycle begins as the hair starts to grow and occurs throughout the anagen phase. In the telogen and catagen phases, the Wnt/β-catenin signaling decreases or disappears, resulting in degeneration of hair follicles and shedding of hair. Therefore, it was investigated in the examples how much the momordin Ic, platycodin D2, polygalacin D or pseudoginsenoside RT5 of the present disclosure contributes to the amplification of Wnt/β-catenin signaling.
Wnt3a protein was used as a positive control group for amplifying Wnt/β-catenin signaling, and DMSO was used as a negative control group. After seeding Wnt Reporter HEK293A cells in a 96-well culture plate, with 3×10^4 cells per well, and then treating with the momordin Ic, platycodin D2, polygalacin D or pseudoginsenoside RT5 of the present disclosure as described in Table 5, reporter assay was conducted using a Promega's luciferase assay kit (E1960). The experiment was conducted according to the manufacturer's instructions and the activity of the Wnt/β-catenin promoter was measured using a luminometer (Victor; PerkinElmer, Waltham, Massachusetts, USA).

[2] = system: Human-derived dermal papilla cells (DPCs); test: Enhancement of mitochondrial activity of dermal papilla cells (JC-1 method); assay type: cell-based; settings: for Mitochondrial activity of dermal papilla cells (%): incubated for a day, percentage of the control group as 100; for Effect on mitochondrial activity of dermal papilla cells (in words): summary of Table 4
Protocol: Human-derived dermal papilla cells (DPCs) were purchased from PromoCell. The DPCs were cultured in DMEM (Hyclone Inc., UT, USA) containing 5% fetal bovine serum (FBS; GIBCO, NY, USA), 100 units/mL penicillin and 100 μg/mL streptomycin under the condition of 37° C. and 5% CO2. The cultured DPCs were seeded onto a 96-well plate at 3,000 cells/well and then cultured for 24 hours under a 0.1% serum condition. […] After the incubation, the degree of cell proliferation was evaluated by the JC-1 method. The cell culture was treated and incubated with JC-1 at 1:100 for 1 hour. 1 hour later, the fluorescence of each well was measured at 590 nm and 530 nm. All the experiments were 3 times and the fluorescence intensity was averaged. The result was expressed as percentage of the control group as 100.

[3] = system: Human-derived dermal papilla cells (DPCs); test: Enhancement of activity of dermal papilla cells (CCK-8 method); assay type: cell-based; settings: for Activity of dermal papilla cells (%): incubated for a day, percentage of the control group as 100; for Effect on activity and proliferation of dermal papilla cells (in words): summary of Table 3
Protocol: Human-derived dermal papilla cells (DPCs) were purchased from PromoCell. The DPCs were cultured in DMEM (Hyclone Inc., UT, USA) containing 5% fetal bovine serum (FBS; GIBCO, NY, USA), 100 units/mL penicillin and 100 μg/mL streptomycin under the condition of 37° C. and 5% CO2. The cultured DPCs were seeded onto a 96-well plate at 3,000 cells/well and then cultured for 24 hours under a 0.1% serum condition. […] After the incubation, the enhancement of cellular activity was evaluated by the CCK method. The cell culture was treated and incubated with CCK-8 at 1:10 for 1 hour. 1 hour later, the absorbance of each well was measured at 450 nm. All the experiments were 3 times and the absorbance was averaged. The result was expressed as percentage of the control group as 100.

[4] = system: androgen receptor; test: Androgenic activity: MMTV-Luc transcriptional activation assay in 22Rv1 cells with DHT; assay type: cell-based, human; settings: for Inhibition of androgenic activity (%): 10 μg/mL together with 1 nM DHT, 24 hours; for Effect of inhibiting androgenic activity (in words): summary of Table 6
Protocol: The stable cell line was maintained by subculturing using RPMI1640 and 10% fetal bovine serum (GIBCO BRL, Gaithersburg, MD, USA). For transcriptional activation assay, the cells were seeded in a 96-well plate, with 25,000 cells per well, while replacing the medium with phenol red-free RPMI1640 containing 5% charcoal-stripped fetal bovine serum. […] The cell culture was treated and incubated with CCK-8 at 1:10 for 2 hours. 2 hour later, the absorbance of each well was measured at 450 nm. All the experiments were 3 times and the absorbance was averaged.

Row | Compound | Wnt signaling activity for activating hair follicles (%) ([1]; 2 μg/mL) | Mitochondrial activity of dermal papilla cells (%) ([2]; 2 μg/mL) | Activity of dermal papilla cells (%) ([3]; 2 μg/mL) | Wnt signaling activity for activating hair follicles (%) ([1]; 10 μg/mL) | Wnt signaling activity (in words) [1] | Inhibition of androgenic activity (%) [4] [%] | Mitochondrial activity of dermal papilla cells (%) ([2]; 10 μg/mL) | Effect on mitochondrial activity of dermal papilla cells (in words) [2] | Activity of dermal papilla cells (%) ([3]; 10 μg/mL) | Effect on activity and proliferation of dermal papilla cells (in words) [3] | Effect of inhibiting androgenic activity (in words) [4]
1 | Nc1cc(N2CCCCC2)nc(N)[n+]1[O-] [Minoxidil, 2,4-diamino-6-piperidinopyrimidine 3-oxide, reference compound] | 82 | 129 | 121 | – | – | – | – | – | – | – | –
2 | CC(C)(O)[C@H]1CC[C@@](C)([C@H]2CC[C@]3(C)[C@@H]2[C@H](O)C[C@@H]2[C@@]4(C)CC[C@H](O)C(C)(C)[C@@H]4[C@@H](O[C@@H]4O[C@H](CO)[C@@H](O)[C@H](O)[C@H]4O)C[C@]23C)O1 [Pseudoginsenoside RT5, pseudoginsenoside RT5] | – | – | – | 120 | superior Wnt signaling activity | 8 | 112 | superior effect of enhancing the mitochondrial activity | 141 | superior effect of enhancing the activity of dermal papilla cells | –
3 | C[C@@H]1O[C@@H](O[C@H]2[C@H](OC(=O)[C@]34CCC(C)(C)C[C@H]3C3=CC[C@@H]5[C@@]6(C)C[C@H](O)[C@H](O[C@@H]7O[C@H](CO)[C@@H](O)[C@H](O)[C@H]7O)[C@@](C)(CO)[C@@H]6CC[C@@]5(C)[C@]3(C)C[C@H]4O)OC[C@H](O)[C@@H]2O)[C@H](O)[C@H](O)[C@H]1O[C@@H]1OC[C@@H](O)[C@H](O[C@@H]2OC[C@](O)(CO)[C@H]2O)[C@H]1O [Polygalacin D, polygalacin D] | – | – | – | 293 | superior Wnt signaling activity | 26 | – | – | 164 | superior effect of enhancing the activity of dermal papilla cells | superior effect of inhibiting androgenic activity
4 | CC1(C)CC[C@]2(C(=O)O)CC[C@]3(C)C(=CC[C@@H]4[C@@]5(C)CC[C@H](O[C@@H]6O[C@H](C(=O)O)[C@@H](O)[C@H](O[C@@H]7OC[C@@H](O)[C@H](O)[C@H]7O)[C@H]6O)C(C)(C)[C@@H]5CC[C@]43C)[C@@H]2C1 [Momordin Ic, momordin Ic] | – | – | – | 370 | superior Wnt signaling activity | 12 | 120 | superior effect of enhancing the mitochondrial activity | 148 | superior effect of enhancing the activity of dermal papilla cells | –
5 | CC(C)=CCC[C@](C)(O[C@@H]1O[C@H](CO)[C@@H](O)[C@H](O)[C@H]1O)[C@H]1CC[C@]2(C)[C@@H]1[C@H](O)C[C@@H]1[C@@]3(C)CC[C@H](O[C@@H]4O[C@H](CO)[C@@H](O)[C@H](O)[C@H]4O[C@@H]4O[C@H](CO)[C@@H](O)[C@H](O)[C@H]4O)C(C)(C)[C@@H]3[C@@H](O)C[C@]12C [Vina-ginsenoside R4, vina-ginsenoside R4] | – | – | – | – | – | 4 | 111 | superior effect of enhancing the mitochondrial activity | 137 | superior effect of enhancing the activity of dermal papilla cells | –
6 | asiaticoside B | – | – | – | – | – | 6 | 151 | superior effect of enhancing the mitochondrial activity | 131 | superior effect of enhancing the activity of dermal papilla cells | –
7 | C[C@@H]1O[C@@H](O[C@H]2[C@H](O[C@H]3[C@H](O[C@H]4CC[C@]5(C)[C@H]6CC=C7[C@@H]8CC(C)(C)CC[C@]8(C(=O)O)CC[C@@]7(C)[C@]6(C)CC[C@H]5C4(C)C)OC[C@H](O)[C@@H]3O)O[C@H](CO)[C@@H](O)[C@@H]2O)[C@H](O)[C@H](O)[C@H]1O [Raddeanin A, raddeanin A] | – | – | – | – | – | 10 | – | – | 130 | superior effect of enhancing the activity of dermal papilla cells | –
8 | CC(C)=CCC[C@](C)(O)[C@H]1CC[C@]2(C)[C@@H]1[C@H](O)C[C@@H]1[C@@]3(C)CC[C@H](O)C(C)(C)[C@@H]3[C@@H](O[C@@H]3O[C@H](CO)[C@@H](O)[C@H](O)[C@H]3O[C@@H]3OC[C@@H](O)[C@H](O)[C@H]3O)C[C@]12C [Notoginsenoside R2, notoginsenoside R2] | – | – | – | – | – | 29 | 117 | superior effect of enhancing the mitochondrial activity | 131 | superior effect of enhancing the activity of dermal papilla cells | superior effect of inhibiting androgenic activity
9 | CC(C)=C[C@@H]1CO[C@]23C[C@@]4(CO2)[C@@H](CC[C@@H]2[C@@]5(C)CC[C@H](O[C@H]6OC[C@H](O)[C@H](O[C@H]7O[C@H](COS(=O)(=O)O)[C@@H](O)[C@H](O)[C@H]7O)[C@H]6O[C@@H]6O[C@@H](CO)[C@H](O)[C@H]6O)C(C)(C)[C@@H]5CC[C@]24C)[C@H]3[C@@]1(C)O [Bacopaside I, bacopaside I] | – | – | – | – | – | 6 | 110 | superior effect of enhancing the mitochondrial activity | 133 | superior effect of enhancing the activity of dermal papilla cells | –
10 | C[C@@H]1O[C@@H](O[C@H]2[C@H](OC(=O)[C@]34CCC(C)(C)C[C@H]3C3=CC[C@@H]5[C@@]6(C)C[C@H](O)[C@H](O[C@@H]7O[C@H](CO)[C@@H](O)[C@H](O[C@@H]8O[C@H](CO)[C@@H](O)[C@H](O)[C@H]8O)[C@H]7O)C(CO)(CO)[C@@H]6CC[C@@]5(C)[C@]3(C)C[C@H]4O)OC[C@H](O)[C@@H]2O)[C@H](O)[C@H](O)[C@H]1O[C@@H]1OC[C@@H](O)[C@H](O[C@@H]2OC[C@](O)(CO)[C@H]2O)[C@H]1O [Platycodin D2, platycodin D2] | – | – | – | 216 | superior Wnt signaling activity | 16 | – | – | 162 | superior effect of enhancing the activity of dermal papilla cells | superior effect of inhibiting androgenic activity
11 | CC(C)C1=CC(=O)C(C)(C2C(O)CC3(C)C4CC=C5C(CCC(OC6OC(CO)C(O)C(O)C6OC6OC(C)C(O)C(O)C6O)C5(C)C)C4(C)C(=O)CC23C)O1 (centres unmarked) [Picfeltarraenin IB, picfeltarraenin IB] | – | – | – | – | – | – | – | – | 139 | superior effect of enhancing the activity of dermal papilla cells | –
12 | C[C@@H]1CC[C@]2(C(=O)O)CC[C@]3(C)C(=CC[C@@H]4[C@@]5(C)CC[C@H](O[C@@H]6OC[C@H](O)[C@H](O)[C@H]6O)C(C)(C)[C@@H]5CC[C@]43C)[C@@H]2[C@]1(C)O [Ziyuglycoside II, ziyuglycoside II] | – | – | – | – | – | – | 105 | superior effect of enhancing the mitochondrial activity | 139 | superior effect of enhancing the activity of dermal papilla cells | –
